Data: US20160151369A1, “SUBSTITUTED 3-PHENYLPROPYLAMINE DERIVATIVES FOR THE TREATMENT OF OPHTHALMIC DISEASES AND DISORDERS” (ACUCELA INC., priority 2013, published 2016)
Read-outs that look alike come from different tables or passages of the source.

Legend:
[1] = test system: retinal isomerase activity (regeneration of 11-cis-retinal); experiment: Comparative in vivo murine isomerase assay, dose response (compound A vs compound D); design: species or system BALB/c mice
Procedure: (§1) All test compounds were stored at room temperature, dessicated.
On the day prior to dose administration compound A and compound D were weighed into new empty glass vials. The compounds were dissolved in di-water at the concentration of 0.833 mg/mL compound A and 0.892 mg/mL compound D, serially diluted into various concentrations, and stored overnight at 4 OC.
56 Male BALB/c mice (Charles River Laboratories) were used for this study. The mice were approximately 8 weeks at the initiation of dosing with an average body weight of 24 grams.
The day prior to dose administration 56 BALB/c mice were placed into a dark room and dark adapted for a minimum of 12 hours prior to dose administration. The mice were maintained in the dark for the duration of the study.
Each animal was removed from its cage and dosed accordingly to the study design in Table 4 (see below). Each animal was administered 0.1 mL of the appropriate compound or vehicle via oral gavage using a 1 mL syringe fitted with a 23 gauge oral gavage needle. Two hours following dose administration, animals were removed from the dark and exposed to 5000 Lux white light for 10 minutes to photobleach their eyes.
Following the completion of the photobleach the animals were returned to the dark for 2 hours to allow for the regeneration of 11-cis-retinal in the eyes. Two hours after photobleaching each animal was euthanized with carbon dioxide followed by cervical dislocation, in the dark under red light. The light control group was euthanized immediately following photobleaching. Immediately following the cervical dislocation both eyes of each animal were removed and transferred into separate tubes, flash frozen in liquid nitrogen and stored in the dark at −80° C. until processing and analysis.
(§2) All sample processing procedures were performed in the dark under red light.
Extracted samples were analyzed using an Agilent 1100 HPLC system according to the procedure outlined in Table 6 (see below)
(§3) HPLC analysis of the eyes measures the peak area units of the 110 cis-Ral-Oxime_syn. Signal.
(§4) Data analysis % inhibition (drug vs. recovery control). % control (drug vs. light control), and One-way ANOVA (followed by Tukey's Multiple Comparison) were performed using peak area units and performed by Prism software. Data are represented as mean and standard deviation.

[2] = test system: regeneration of 11-cis-retinal (isomerase); experiment: Single dose time course in the in vivo isomerase assay at 0.3 mg/kg (compound A vs compound D); conditions: BALB/c mice, single oral dose 0.3 mg/kg; for inhibition at 0.3 mg/kg: Mus musculus, read-out: Percent Inhibition, 0.3 mg/kg, Avg. % Inhibition
Procedure: as §1
On the day prior to dose administration 3-amino-1-(3-((tetrahydro-2H-pyran-4-yl)methoxy)phenyl)propan-1-ol (compound A) and 3-amino-1-(3-((tetrahydro-2H-pyran- 2-yl)methoxy)phenyl)propan-1-ol (compound D) were weighed into new empty glass vials. The compounds were dissolved in di-water at the concentration of 0.068 mg/mL and stored overnight at 4° C.
52 Male BALB/c mice (Charles River Laboratories) were used for this study. The mice were approximately 8 weeks at the initiation of dosing with an average body weight of 23 grams.
The day prior to dose administration 52 BALB/c mice were placed into a dark room and dark adapted for a minimum of 12 hours prior to dose administration. The mice were maintained in the dark for the duration of the study.
Each animal was removed from its cage and dosed accordingly to the study design in Table 10 (see below). Each animal was administered 0.1 mL of the appropriate test article or vehicle orally using a 1 mL syringe fitted with a 23 gauge oral gavage needle. At 2, 4, 6, 8, 16 or 24 hours following dose administration, animals were removed from the dark and exposed to 5000 Lux white light for 10 minutes to photobleach their eyes. Following the completion of the photobleach the animals were returned to the dark for 2 hours to allow for the regeneration of 11-cis-retinal in the eyes. Two hours after photobleaching each animal was euthanized with carbon dioxide followed by cervical dislocation, in the dark under red light. The light control group was euthanized immediately following photobleaching. Immediately following the cervical dislocation both eyes of each animal were removed and transferred into separate tubes, flash frozen in liquid nitrogen and stored in the dark at −80° C. until processing and analysis.
as §2
Extracted samples were analyzed using an Agilent 1100 HPLC system according to the procedure outlined in Table 12 (see below)
as §3, §4

[3] = test system: isomerase (recovery of 11-cis-retinal after bleaching); experiment: In vivo murine isomerase assay (Table 3); conditions: Mus musculus, po, mice
Procedure: The capability of compounds described herein to inhibit isomerase was determined by an in vivo murine isomerase assay. […] The recovery of 11-cis-retinal after bleaching can be used to estimate the activity of isomerase in vivo. Delayed recovery, as represented by lower 11-cis-retinal oxime levels, indicates inhibition of isomerization reaction.
Mice were gavaged with the test compound. […] The mice were allowed to recover 2 hours in the dark. The animals were then sacrificed by carbon dioxide inhalation. Retinoids were extracted from the eye and the regeneration of 11-cis-retinal was assessed at various time intervals.
After the mice were sacrificed, the eyes were immediately removed and placed in liquid nitrogen for storage.
The eyes were placed in 500 μL of bis-tris propane buffer (10 mM, pH˜7.3) and 20 μL of 0.8M hydroxile amine (pH˜7.3). The eyes were cut up into small pieces with small iris scissors and then thoroughly homogenized at 30000 rpm with a mechanical homogenizer (Polytron PT 1300 D) in the tube until no visible tissue remained. 500 μL of methanol and 500 μL of heptane were added to each tube. The tubes were attached to a vortexer so that the contents were mixed thoroughly for 15 minutes in room temperature. The organic phase was separated from the aqueous phase by centrifugation for 10 min at 13K rpm, 4° C. 240 μL of the solution from the top layer (organic phase) was removed and transferred to clean 300 μl glass inserts in HPLC vials using glass pipette and the vials were crimped shut tightly.
The samples were analyzed on an Agilent 1100 HPLC system with normal phase column: SILICA (Beckman Coutlier, dp 5 μm, 4.6 mM×250 mM). […] Loading volume for each sample was 100 μl; detection wavelength was 360 nm. The area under the curve for 11-cis retinal oxime was calculated by Agilent Chemstation software and was recorded manually. Data processing was performed using Prizm software.
Positive control mice (no compound administered) were sacrificed fully dark-adapted and the eye retinoids analyzed. Light (bleached) control mice (no compound administered) were sacrificed and retinoids isolated and analyzed immediately after light treatment.
A time course study was performed to determine the isomerase inhibitory activity of the test compound. […] The animals were then “photo-bleached” (5000 Lux white light for 10 minutes) at 2, 4, 8, 16 and 24 hours after dosing, and returned to darkness to allow recovery of the 11-cis-retinal content of the eyes. Mice were sacrificed 2 hours after bleaching, eyes were enucleated, and retinoid content is analyzed by HPLC.
Recovery control mice (vehicle-only treated) were light-treated and left to recover for 2 hours in the dark before sacrifice and analysis. Light control mice (vehicle only treated) were sacrificed for analysis immediately after photo-bleaching.
An in vivo dose response isomerase inhibition study was performed with test compound. […] Recovery and retinoid analysis were performed as described above. Dark control mice were vehicle-only treated, sacrificed fully dark adapted without light treatment, and analyzed. Recovery control mice and light control mice were included in the study as per the initial phase.

NCC[C@@H](O)c1cccc(OCC2CCOCC2)c1 [Example 1]
dose at which 11-cis-retinal recovery was inhibited by 50% (called IC50) ([1]; BALB/c mice, single oral dose, 2 h, dose response experiment): 0.17 mg/kg
inhibition at 0.03 mg/kg ([1]; Mus musculus, po, 2 h, BALB/c mice, single oral dose 0.03 mg/kg, bleach 2 h after dose, drug vs. recovery control, read-out: Percent Inhibition at 2 Hours, Avg. % Inhibition): -44.1%
inhibition at 0.1 mg/kg ([1]; Mus musculus, po, 2 h, BALB/c mice, single oral dose 0.1 mg/kg, bleach 2 h after dose, drug vs. recovery control, read-out: Percent Inhibition at 2 Hours, Avg. % Inhibition): -9.8%
inhibition at 0.3 mg/kg ([1]; Mus musculus, po, 2 h, BALB/c mice, single oral dose 0.3 mg/kg, bleach 2 h after dose, drug vs. recovery control, read-out: Percent Inhibition at 2 Hours, Avg. % Inhibition): > 90%
inhibition at 0.5 mg/kg ([1]; Mus musculus, po, 2 h, BALB/c mice, single oral dose 0.5 mg/kg, bleach 2 h after dose, drug vs. recovery control, read-out: Percent Inhibition at 2 Hours, Avg. % Inhibition): ~100%
inhibition at 1 mg/kg ([1]; Mus musculus, po, 2 h, BALB/c mice, single oral dose 1 mg/kg, bleach 2 h after dose, drug vs. recovery control, read-out: Percent Inhibition at 2 Hours, Avg. % Inhibition): 100%
inhibition at 3 mg/kg ([1]; Mus musculus, po, 2 h, BALB/c mice, single oral dose 3 mg/kg, bleach 2 h after dose, drug vs. recovery control, read-out: Percent Inhibition at 2 Hours, Avg. % Inhibition): 105%
activity at 0.03 mg/kg ([1]; Mus musculus, BALB/c mice, single oral dose 0.03 mg/kg, bleach 2 h after dose, read-out: Percent control at 2 Hours (Avg. % Inhibition)): 144%
activity at 0.1 mg/kg ([1]; Mus musculus, BALB/c mice, single oral dose 0.1 mg/kg, bleach 2 h after dose, read-out: Percent control at 2 Hours (Avg. % Inhibition)): 110%
activity at 0.3 mg/kg ([1]; Mus musculus, BALB/c mice, single oral dose 0.3 mg/kg, bleach 2 h after dose, read-out: Percent control at 2 Hours (Avg. % Inhibition)): 7.6%
activity at 0.5 mg/kg ([1]; Mus musculus, BALB/c mice, single oral dose 0.5 mg/kg, bleach 2 h after dose, read-out: Percent control at 2 Hours (Avg. % Inhibition)): 0.7%
activity at 1 mg/kg ([1]; Mus musculus, BALB/c mice, single oral dose 1 mg/kg, bleach 2 h after dose, read-out: Percent control at 2 Hours (Avg. % Inhibition)): -0.4%
activity at 3 mg/kg ([1]; Mus musculus, BALB/c mice, single oral dose 3 mg/kg, bleach 2 h after dose, read-out: Percent control at 2 Hours (Avg. % Inhibition)): -5.2%
dose showing nearly 100% inhibition ([1]; dose response experiment, 2 h): 0.5 mg/kg
times more active than compound D, by dose for nearly 100% inhibition ([1]; dose response experiment, 2 h): approximately 6 ×
times more active than compound D, by inhibition at a dose of 0.3 mg/kg ([1]; dose response experiment, 2 h): greater than 10 ×
Percent Control, 0.3 mg/kg (average) ([2]; Time Point 2 Hours): 2.0%
Percent Control, 0.3 mg/kg (average) ([2]; Time Point 4 Hours): 11.5%
Percent Control, 0.3 mg/kg (average) ([2]; Time Point 6 Hours): 43.7%
Percent Control, 0.3 mg/kg (average) ([2]; Time Point 8 Hours): 79.8%
Percent Control, 0.3 mg/kg (average) ([2]; Time Point 16 Hours): 98.5%
Percent Control, 0.3 mg/kg (average) ([2]; Time Point 24 Hours): 95.8%
inhibition at 0.3 mg/kg ([2]; Time Point 2 Hours): 98%
inhibition at 0.3 mg/kg ([2]; Time Point 4 Hours): 88.5%
inhibition at 0.3 mg/kg ([2]; Time Point 6 Hours): 56.3%
inhibition at 0.3 mg/kg ([2]; Time Point 8 Hours): 20.2%
inhibition at 0.3 mg/kg ([2]; Time Point 16 Hours): 1.5%
inhibition at 0.3 mg/kg ([2]; Time Point 24 Hours): 4.2%
inhibition at 0.03 mg/kg ([3]; 2 h, Dose 0.03 mg/kg): -2.7%
inhibition at 0.1 mg/kg ([3]; 2 h, Dose 0.1 mg/kg): 3.4%
inhibition at 0.3 mg/kg ([3]; 2 h): 58.4%
inhibition at 0.5 mg/kg ([3]; 2 h, Dose 0.5 mg/kg): 89.9%
inhibition at 0.81 mg/kg ([3]; 2 h): 98.2%
inhibition at 1 mg/kg ([3]; 2 h): 96.9%
inhibition at 3 mg/kg ([3]; 2 h, Dose 3 mg/kg): 101%
inhibition at 0.3 mg/kg ([3]; 4 h): 15.7%
inhibition at 0.81 mg/kg ([3]; 4 h): 87.9%
inhibition at 1 mg/kg ([3]; 4 h): 91.1%
inhibition at 0.81 mg/kg ([3]; 6 h): 75.8%
inhibition at 0.3 mg/kg ([3]; 8 h): 10.4%
inhibition at 0.81 mg/kg ([3]; 8 h): 51.8%
inhibition at 1 mg/kg ([3]; 8 h): 62%
inhibition at 0.3 mg/kg ([3]; 16 h): -2.7%
inhibition at 0.81 mg/kg ([3]; 16 h): 5.5%
inhibition at 1 mg/kg ([3]; 16 h): -1.2%
inhibition at 0.3 mg/kg ([3]; 24 h): -4.4%
inhibition at 0.81 mg/kg ([3]; 24 h): -4.8%
inhibition at 1 mg/kg ([3]; 24 h): 3.8%
